We go through 1 compound from patent US20080031935A1, “Cholinesterase Inhibitors In Liposomes And Their Production And Use” (priority 2004, published 2008).

This series can be described thus: Solubility of galantamine base in ethanol. Format: physicochemical.

Take `COc1ccc2c3c1O[C@H]1C[C@@H](O)C=C[C@@]31CCN(C)C2` [galantamine base, galantamine]: the solubility in ethanol entry is given as “soluble”.
